The text below walks through data of BindingDB's records for patent US11111233 (Shenzhen Targetrx, 2021).

Some results are limits rather than exact numbers.

The target in assay [1] is Epidermal growth factor receptor [T790M,L858R] (Homo sapiens, UniProt P00533, L858R/T790M). Description: Kinase Inhibition Assay.
Method: (§1) Then, it was diluted in DMSO with a 3-fold series gradient dilution for 10 times. […] The corresponding substrate and ATP were added and reacted at room temperature for 20 minutes (in which a negative and a positive control were set: the negative control is blank and the positive control is erlotinib). […] The inhibitions of the enzyme activity by the compounds at different concentrations were then fitted using Graphpad 5.0 software according to the four-parameter equation, and the IC50 values were calculated.
Assay [2] has as its target Epidermal growth factor receptor (Homo sapiens, UniProt P00533). Description: Kinase Inhibition Assay.
Method: as §1

Epidermal growth factor receptor, sequence (P00533 whole entry): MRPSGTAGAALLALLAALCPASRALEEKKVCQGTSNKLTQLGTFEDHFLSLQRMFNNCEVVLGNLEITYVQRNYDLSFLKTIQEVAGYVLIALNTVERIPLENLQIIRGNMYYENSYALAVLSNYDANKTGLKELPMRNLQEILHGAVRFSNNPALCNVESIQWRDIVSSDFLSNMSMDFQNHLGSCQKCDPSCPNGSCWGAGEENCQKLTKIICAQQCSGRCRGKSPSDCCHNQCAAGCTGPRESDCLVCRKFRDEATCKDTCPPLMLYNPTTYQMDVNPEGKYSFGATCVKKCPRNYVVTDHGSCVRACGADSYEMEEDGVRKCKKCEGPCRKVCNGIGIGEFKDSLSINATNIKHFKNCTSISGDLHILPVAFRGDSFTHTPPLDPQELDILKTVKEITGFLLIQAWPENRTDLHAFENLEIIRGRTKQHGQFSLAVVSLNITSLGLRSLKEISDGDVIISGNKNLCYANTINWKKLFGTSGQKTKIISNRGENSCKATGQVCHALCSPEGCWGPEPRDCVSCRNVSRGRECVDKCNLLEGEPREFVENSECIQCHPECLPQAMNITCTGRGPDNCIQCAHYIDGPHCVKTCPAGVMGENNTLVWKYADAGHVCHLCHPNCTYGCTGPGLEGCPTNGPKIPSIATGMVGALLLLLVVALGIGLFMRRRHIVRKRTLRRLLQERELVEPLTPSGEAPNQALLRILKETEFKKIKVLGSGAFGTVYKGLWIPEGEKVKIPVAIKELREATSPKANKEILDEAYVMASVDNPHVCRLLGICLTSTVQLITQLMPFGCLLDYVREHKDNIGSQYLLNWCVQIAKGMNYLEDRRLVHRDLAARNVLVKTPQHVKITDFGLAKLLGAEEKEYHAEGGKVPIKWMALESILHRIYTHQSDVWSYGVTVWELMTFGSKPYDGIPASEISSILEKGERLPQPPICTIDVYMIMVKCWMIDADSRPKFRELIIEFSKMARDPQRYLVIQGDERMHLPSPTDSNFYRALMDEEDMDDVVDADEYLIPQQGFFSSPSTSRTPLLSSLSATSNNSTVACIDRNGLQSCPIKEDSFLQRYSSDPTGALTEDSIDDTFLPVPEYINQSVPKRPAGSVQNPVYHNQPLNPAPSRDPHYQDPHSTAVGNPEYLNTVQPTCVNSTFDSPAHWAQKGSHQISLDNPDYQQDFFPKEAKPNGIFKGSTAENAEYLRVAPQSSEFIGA
Epidermal growth factor receptor [T790M,L858R], sequence (P00533 25-1210 T790M/L858R limits assumed): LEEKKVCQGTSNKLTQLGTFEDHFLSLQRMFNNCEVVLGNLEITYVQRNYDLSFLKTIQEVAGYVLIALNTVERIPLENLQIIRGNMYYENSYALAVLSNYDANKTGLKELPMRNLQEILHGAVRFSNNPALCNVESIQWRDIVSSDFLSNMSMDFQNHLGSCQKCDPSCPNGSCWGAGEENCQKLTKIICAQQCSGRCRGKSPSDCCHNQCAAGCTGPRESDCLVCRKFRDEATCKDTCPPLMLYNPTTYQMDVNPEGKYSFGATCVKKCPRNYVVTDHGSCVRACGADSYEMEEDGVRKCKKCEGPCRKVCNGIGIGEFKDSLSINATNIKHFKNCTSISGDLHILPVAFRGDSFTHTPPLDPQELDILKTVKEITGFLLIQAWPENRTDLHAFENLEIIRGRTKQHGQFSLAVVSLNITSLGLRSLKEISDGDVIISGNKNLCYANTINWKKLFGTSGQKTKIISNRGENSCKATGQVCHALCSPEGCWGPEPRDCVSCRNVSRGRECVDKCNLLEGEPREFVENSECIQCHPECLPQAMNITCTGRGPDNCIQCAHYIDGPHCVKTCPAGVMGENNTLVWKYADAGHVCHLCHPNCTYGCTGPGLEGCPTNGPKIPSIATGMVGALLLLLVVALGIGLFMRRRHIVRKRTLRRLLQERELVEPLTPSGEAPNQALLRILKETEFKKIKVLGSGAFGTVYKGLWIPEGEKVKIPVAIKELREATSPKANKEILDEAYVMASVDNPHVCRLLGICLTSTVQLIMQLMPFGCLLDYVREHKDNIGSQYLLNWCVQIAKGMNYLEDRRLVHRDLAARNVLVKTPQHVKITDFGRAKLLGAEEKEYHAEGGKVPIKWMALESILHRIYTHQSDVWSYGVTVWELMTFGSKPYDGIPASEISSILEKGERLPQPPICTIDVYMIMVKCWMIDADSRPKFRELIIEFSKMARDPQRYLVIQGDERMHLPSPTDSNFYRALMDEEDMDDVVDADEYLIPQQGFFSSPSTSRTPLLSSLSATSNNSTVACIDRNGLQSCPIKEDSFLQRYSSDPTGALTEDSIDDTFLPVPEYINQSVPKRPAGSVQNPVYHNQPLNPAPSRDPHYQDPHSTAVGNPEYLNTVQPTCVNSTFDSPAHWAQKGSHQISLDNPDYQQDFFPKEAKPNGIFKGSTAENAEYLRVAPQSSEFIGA

Compound `C=CC(=O)Nc1cc(Nc2nccc(-c3cc(F)c4nc(C)n(C(C)C)c4c3)n2)c(OC)cc1OCCN(C)C` [US11111233, Example 12] yielded an IC50 in assay [1] of less than 1 nM.
Compound `C=CC(=O)Nc1cc(Nc2nccc(-c3cc(F)c4nc(C)n(C(C)C)c4c3)n2)c(OC)cc1N1CCOCC1` [US11111233, Example 16] showed an IC50 in assay [2] of more than 100 nM.
